Results from ChEMBL document CHEMBL1129658, “Syntheses and conformational analyses of glutamate analogs: 2-(2-carboxy-3-substituted-cyclopropyl)glycines as useful probes for excitatory amino acid receptors” (J Med Chem, 1996).

Legend:
[1] = pKa value by 1H NMR titration experiments; pK1; type: physicochemical
[2] = pKa value by 1H NMR titration experiments; pK2; type: physicochemical
[3] = pKa value by 1H NMR titration experiments; pK3; type: physicochemical
Rattus norvegicus [4] = species on record: Rattus norvegicus; test: Depolarizing potency in new born rat spinal cord; type: functional
Rattus norvegicus [5] = species on record: Rattus norvegicus; test: Compound was tested for the inhibition of spinal reflex evoked by electrical stimulation of the dorsal root of new born rat
[6] = Compound was tested for the Inhibition of forskolin-stimulated cAMP formation in the cultured spinal neurons; details: Rattus norvegicus

Molecule `N[C@H](C(=O)O)[C@H]1C[C@H]1C(=O)O` has a pKa [1] of 2.1, a pKa [2] of 4.3 and a pKa [3] of 10.
Molecule `COC[C@H]1[C@H](C(=O)O)[C@@H]1[C@H](N)C(=O)O` has a Relative potency (Rattus norvegicus [4]) of 50, a pKa [1] of 2.2 and a pKa [2] of 4.7. For the same molecule, the pKa [3] was 9.6.
In the case of `COC[C@H]1[C@H](C(=O)O)[C@H]1[C@H](N)C(=O)O`, the Relative potency (Rattus norvegicus [4]) is reported as 0.1, the pKa [1] is reported as 2.3 and the pKa [2] is reported as 4.2. For the same molecule, the pKa [3] was 10.2.
With `N[C@H](C(=O)O)[C@H]1C[C@@H]1C(=O)O` the Relative potency (Rattus norvegicus [4]) was 6, the IC50 (Rattus norvegicus [5]) was 700 nM and the pKa [1] was 1.9. The pKa [2] was 4.2, the IC50 [6] was 100 nM and the pKa [3] was 9.7.
`C=C(C)[C@H]1CN[C@H](C(=O)O)[C@H]1CC(=O)O` [KAINIC ACID] gave a Relative potency (Rattus norvegicus [4]) of 100, a pKa [1] of 2.1 and a pKa [2] of 4.3. For the same molecule, the pKa [3] was 10.1.
`N[C@@H](CCC(=O)O)C(=O)O` [GLUTAMIC ACID] gave a Relative potency (Rattus norvegicus [4]) of 1 and a pKa [3] of 9.7.
`COC[C@@H]1[C@H](C(=O)O)[C@@H]1[C@H](N)C(=O)O` showed a Relative potency (Rattus norvegicus [4]) of 25, a pKa [1] of 2 and a pKa [2] of 5.1. It also gave a pKa [3] of 10.1.
Molecule `N[C@H](C(=O)O)[C@@H]1C[C@@H]1C(=O)O` has a Relative potency (Rattus norvegicus [4]) of 100, a pKa [1] of 2.5 and a pKa [2] of 4.6. For the same molecule, the pKa [3] was 10.
In the case of `N[C@H](C(=O)O)[C@@H]1C[C@H]1C(=O)O`, the pKa [1] is reported as 2.2, the pKa [2] is reported as 4.2 and the pKa [3] is reported as 9.5.
For `Cc1onc(O)c1CC(N)C(=O)O` [(R,S)-AMPA], the pKa [1] was 2.1, the pKa [2] was 5.2 and the pKa [3] was 10.1.
Molecule `COC[C@@H]1[C@H](C(=O)O)[C@H]1[C@H](N)C(=O)O` has a Relative potency (Rattus norvegicus [4]) of 0.1, a pKa [1] of 2.1 and a pKa [2] of 4. It also gave a pKa [3] of 9.7.
